Inhibition and IC50 data for 4 compounds are collected here from ChEMBL document CHEMBL3233010, “Design, synthesis and biological evaluation of novel 6-alkenylamides substituted of 4-anilinothieno[2,3-d]pyrimidines as irreversible epidermal growth factor receptor inhibitors” (Bioorg Med Chem, 2014).

Assay [1] deals with Epidermal growth factor receptor (Homo sapiens), P00533 [L858R,T790M]. In words: Inhibition of EGF-induced EGFR T790M/L858R double mutant phosphorylation in human NCI-H1975 cells pretreated for 2 hrs followed by EGF challenge by Western blotting analysis. The class given is cell-based. (In general: A western blot detects proteins with antibodies after separation by electrophoresis.)

The target in assay [2] is T1, Epidermal growth factor receptor (Homo sapiens, UniProt P00533). In words: Inhibition of EGF-induced EGFR autophosphorylation in human A431 cells at 0.1 umol/L pretreated for 2 hrs followed by EGF challenge by Western blotting analysis. In kind it is cell-based. The note with it: A-431.
For assay [3], the target named is T1, Epidermal growth factor receptor. In words: Inhibition of EGFR in human A431 cells assessed as inhibition of EGF-induced AKT phosphorylation at 0.1 to 1 umol/L pretreated for 2 hrs followed by EGF challenge by Western blotting analysis. The note with it: A-431. In kind it is cell-based.
The target is the same in assay [4]. Kind of assay: Inhibition of EGF-induced EGFR autophosphorylation in human A431 cells pretreated for 2 hrs followed by EGF challenge by Western blotting analysis. The conditions noted are these: A-431. The class given is cell-based.
For assay [5], the system named is A-431. In words: Antiproliferative activity against human A431 cells assessed as growth inhibition after 72 hrs by SRB assay. In kind it is functional, cell-based. The note with it: A-431, 72 h. (In general: The SRB assay estimates cell density from bound dye.)
For assay [6], the target named is T1, Epidermal growth factor receptor. Kind of assay: Inhibition of EGFR in human A431 cells assessed as inhibition of EGF-induced ERK1/2 phosphorylation at 0.1 to 1 umol/L pretreated for 2 hrs followed by EGF challenge by Western blotting analysis. The conditions noted are these: A-431. The class given is cell-based.
For assay [7], the target named is Epidermal growth factor receptor (Homo sapiens, UniProt P00533, L858R/T790M). Kind of assay: Inhibition of EGFR T790M/L858R double mutant (unknown origin) expressed in baculovirus expression system using Poly(Glu:Tyr)4:1 substrate after 60 mins by ELISA.
Assay [8] concerns Epidermal growth factor receptor (Homo sapiens), P00533 [L858R,T790M]. In words: Inhibition of EGFR T790M/L858R double mutant in human NCI-H1975 cells assessed as inhibition of EGF-induced AKT phosphorylation pretreated for 2 hrs followed by EGF challenge by Western blotting analysis. In kind it is cell-based.
The test system is the same in assay [9]. In words: Inhibition of EGFR T790M/L858R double mutant in human NCI-H1975 cells assessed as inhibition of EGF-induced ERK1/2 phosphorylation pretreated for 2 hrs followed by EGF challenge by Western blotting analysis. In kind it is cell-based.
The subject of assay [10] is NCI-H1975. Kind of assay: Antiproliferative activity against gefitinib-resistant human NCI-H1975 cells assessed as growth inhibition after 72 hrs by SRB assay. The class given is functional, cell-based. The note with it: NCI-H1975, 72 h.
Assay [11] addresses T1, Epidermal growth factor receptor. In words: Inhibition of wild type EGFR domain (unknown origin) expressed in baculovirus expression system using Poly(Glu:Tyr)4:1 substrate after 60 mins by ELISA.
The target in assay [12] is Mast/stem cell growth factor receptor Kit (Homo sapiens, UniProt P10721). Kind of assay: Inhibition of recombinant c-Kit (unknown origin) using Poly(Glu:Tyr)4:1 after 60 mins by ELISA. Background: ELISA stands for enzyme-linked immunosorbent assay.
Assay [13] deals with Vascular endothelial growth factor receptor 2 (Homo sapiens, UniProt P35968). In words: Inhibition of KDR (unknown origin) expressed in baculovirus expression system using Poly(Glu:Tyr)4:1 after 60 mins by ELISA.
Assay [14] has as its system Epidermal growth factor receptor (Homo sapiens), P00533 [L858R,T790M]. In words: Inhibition of EGF-induced EGFR T790M/L858R double mutant phosphorylation in human NCI-H1975 cells at 0.1 umol/L pretreated for 2 hrs followed by EGF challenge by Western blotting analysis. In kind it is cell-based.
The target of assay [15] is Proto-oncogene tyrosine-protein kinase receptor Ret (Homo sapiens, UniProt P07949). In words: Inhibition of recombinant RET (unknown origin) using Poly(Glu:Tyr)4:1 after 60 mins by ELISA.
Assay [16] has as its target Platelet-derived growth factor receptor alpha (Homo sapiens, UniProt P16234). In words: Inhibition of recombinant PDGFRalpha (unknown origin) using Poly(Glu:Tyr)4:1 after 60 mins by ELISA.
Assay [17] has as its target Receptor tyrosine-protein kinase erbB-4 (Homo sapiens, UniProt Q15303). Kind of assay: Inhibition of recombinant ErbB4 (unknown origin) using Poly(Glu:Tyr)4:1 after 60 mins by ELISA.
Assay [18] has as its target Tyrosine-protein kinase ABL1 (Homo sapiens, UniProt P00519). Kind of assay: Inhibition of recombinant ABL (unknown origin) using Poly(Glu:Tyr)4:1 after 60 mins by ELISA.
Assay [19] has as its target Macrophage-stimulating protein receptor (Homo sapiens, UniProt Q04912). In words: Inhibition of recombinant RON (unknown origin) using Poly(Glu:Tyr)4:1 after 60 mins by ELISA.
The target in assay [20] is Fibroblast growth factor receptor 1 (Homo sapiens, UniProt P11362). In words: Inhibition of FGFR1 (unknown origin) expressed in baculovirus expression system using Poly(Glu:Tyr)4:1 after 60 mins by ELISA.
In assay [21] the target is Insulin-like growth factor 1 receptor (Homo sapiens, UniProt P08069). Kind of assay: Inhibition of IGF1R (unknown origin) expressed in baculovirus expression system using Poly(Glu:Tyr)4:1 after 60 mins by ELISA.
Assay [22] concerns the target Vascular endothelial growth factor receptor 1 (Homo sapiens, UniProt P17948). Kind of assay: Inhibition of recombinant Flt-1 (unknown origin) using Poly(Glu:Tyr)4:1 after 60 mins by ELISA.
Assay [23] has as its target Platelet-derived growth factor receptor beta (Homo sapiens, UniProt P09619). Kind of assay: Inhibition of recombinant PDGFRbeta (unknown origin) using Poly(Glu:Tyr)4:1 after 60 mins by ELISA.
In assay [24] the target is Ephrin type-A receptor 2 (Homo sapiens, UniProt P29317). Kind of assay: Inhibition of recombinant EPHA2 (unknown origin) using Poly(Glu:Tyr)4:1 after 60 mins by ELISA.
Assay [25] deals with Receptor tyrosine-protein kinase erbB-2 (Homo sapiens, UniProt P04626). Kind of assay: Inhibition of ErbB2 (unknown origin) expressed in baculovirus expression system using Poly(Glu:Tyr)4:1 after 60 mins by ELISA.

Calls of active or inactive are those of the source. No cut-off for these calls is given here.

By IC50 is commonly meant the concentration needed to halve the response being measured.

Chain of Epidermal growth factor receptor (Homo sapiens, UniProt P00533, L858R/T790M) (P00533 25-1210 T790M/L858R limits assumed): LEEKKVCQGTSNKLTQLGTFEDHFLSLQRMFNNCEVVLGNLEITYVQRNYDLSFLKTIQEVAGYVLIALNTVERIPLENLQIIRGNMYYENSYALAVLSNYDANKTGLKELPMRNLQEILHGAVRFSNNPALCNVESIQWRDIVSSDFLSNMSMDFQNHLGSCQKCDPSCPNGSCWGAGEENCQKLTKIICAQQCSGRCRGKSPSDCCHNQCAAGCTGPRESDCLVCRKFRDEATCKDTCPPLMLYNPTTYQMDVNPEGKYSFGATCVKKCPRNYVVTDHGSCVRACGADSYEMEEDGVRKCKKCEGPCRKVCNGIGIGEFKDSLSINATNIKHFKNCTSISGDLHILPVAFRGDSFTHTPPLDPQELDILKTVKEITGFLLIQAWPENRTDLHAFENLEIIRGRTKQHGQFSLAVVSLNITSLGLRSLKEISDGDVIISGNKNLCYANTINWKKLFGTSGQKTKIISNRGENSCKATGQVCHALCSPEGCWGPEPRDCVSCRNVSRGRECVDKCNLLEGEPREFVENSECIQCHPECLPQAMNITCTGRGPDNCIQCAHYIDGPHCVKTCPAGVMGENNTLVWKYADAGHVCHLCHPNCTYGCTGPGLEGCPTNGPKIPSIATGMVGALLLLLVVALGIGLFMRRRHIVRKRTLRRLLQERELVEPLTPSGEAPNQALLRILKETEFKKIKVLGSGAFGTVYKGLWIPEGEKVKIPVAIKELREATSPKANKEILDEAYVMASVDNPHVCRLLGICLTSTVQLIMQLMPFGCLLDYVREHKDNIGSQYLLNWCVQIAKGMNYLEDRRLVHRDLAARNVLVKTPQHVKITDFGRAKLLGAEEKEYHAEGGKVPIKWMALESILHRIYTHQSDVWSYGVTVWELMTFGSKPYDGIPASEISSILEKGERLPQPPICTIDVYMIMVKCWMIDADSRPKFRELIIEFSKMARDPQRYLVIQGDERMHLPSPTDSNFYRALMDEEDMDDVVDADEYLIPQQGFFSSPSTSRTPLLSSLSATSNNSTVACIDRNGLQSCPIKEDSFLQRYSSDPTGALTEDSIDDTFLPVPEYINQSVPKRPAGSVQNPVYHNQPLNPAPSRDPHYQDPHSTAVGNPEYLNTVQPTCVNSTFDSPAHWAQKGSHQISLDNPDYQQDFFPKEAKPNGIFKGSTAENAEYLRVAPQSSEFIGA
Chain of Epidermal growth factor receptor (Homo sapiens), P00533 [L858R,T790M] (P00533 whole entry T790M/L858R, looked up): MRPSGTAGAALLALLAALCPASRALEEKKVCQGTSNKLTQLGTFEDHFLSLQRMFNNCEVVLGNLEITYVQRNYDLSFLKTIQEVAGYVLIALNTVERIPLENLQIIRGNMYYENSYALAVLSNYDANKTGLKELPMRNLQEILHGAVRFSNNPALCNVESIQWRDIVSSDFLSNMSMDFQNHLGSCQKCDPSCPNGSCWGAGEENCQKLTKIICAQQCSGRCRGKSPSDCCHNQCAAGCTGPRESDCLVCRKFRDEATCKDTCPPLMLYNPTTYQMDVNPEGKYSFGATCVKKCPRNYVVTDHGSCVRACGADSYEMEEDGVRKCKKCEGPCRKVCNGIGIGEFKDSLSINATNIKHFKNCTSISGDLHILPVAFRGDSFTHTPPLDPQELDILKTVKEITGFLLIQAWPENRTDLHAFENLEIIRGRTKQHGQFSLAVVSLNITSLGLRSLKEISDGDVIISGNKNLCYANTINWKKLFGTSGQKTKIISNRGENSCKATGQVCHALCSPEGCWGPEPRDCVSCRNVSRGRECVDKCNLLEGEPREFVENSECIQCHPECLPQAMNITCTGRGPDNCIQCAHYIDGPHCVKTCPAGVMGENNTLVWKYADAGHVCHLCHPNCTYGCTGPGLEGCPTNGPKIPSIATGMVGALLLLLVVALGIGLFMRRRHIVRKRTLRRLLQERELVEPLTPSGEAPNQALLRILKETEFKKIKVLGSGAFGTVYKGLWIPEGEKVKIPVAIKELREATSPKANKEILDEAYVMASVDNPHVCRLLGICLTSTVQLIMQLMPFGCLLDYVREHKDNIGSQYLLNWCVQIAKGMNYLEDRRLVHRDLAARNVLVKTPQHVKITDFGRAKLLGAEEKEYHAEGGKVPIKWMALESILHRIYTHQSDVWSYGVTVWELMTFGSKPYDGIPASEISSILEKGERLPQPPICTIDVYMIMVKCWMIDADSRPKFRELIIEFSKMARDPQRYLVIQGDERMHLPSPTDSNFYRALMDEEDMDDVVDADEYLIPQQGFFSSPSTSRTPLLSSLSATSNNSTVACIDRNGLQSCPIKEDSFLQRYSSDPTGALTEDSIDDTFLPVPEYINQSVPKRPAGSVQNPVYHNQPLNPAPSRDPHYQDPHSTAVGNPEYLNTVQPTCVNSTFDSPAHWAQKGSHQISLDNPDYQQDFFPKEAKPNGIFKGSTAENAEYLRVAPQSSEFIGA
T1 sequence (P00533 whole entry): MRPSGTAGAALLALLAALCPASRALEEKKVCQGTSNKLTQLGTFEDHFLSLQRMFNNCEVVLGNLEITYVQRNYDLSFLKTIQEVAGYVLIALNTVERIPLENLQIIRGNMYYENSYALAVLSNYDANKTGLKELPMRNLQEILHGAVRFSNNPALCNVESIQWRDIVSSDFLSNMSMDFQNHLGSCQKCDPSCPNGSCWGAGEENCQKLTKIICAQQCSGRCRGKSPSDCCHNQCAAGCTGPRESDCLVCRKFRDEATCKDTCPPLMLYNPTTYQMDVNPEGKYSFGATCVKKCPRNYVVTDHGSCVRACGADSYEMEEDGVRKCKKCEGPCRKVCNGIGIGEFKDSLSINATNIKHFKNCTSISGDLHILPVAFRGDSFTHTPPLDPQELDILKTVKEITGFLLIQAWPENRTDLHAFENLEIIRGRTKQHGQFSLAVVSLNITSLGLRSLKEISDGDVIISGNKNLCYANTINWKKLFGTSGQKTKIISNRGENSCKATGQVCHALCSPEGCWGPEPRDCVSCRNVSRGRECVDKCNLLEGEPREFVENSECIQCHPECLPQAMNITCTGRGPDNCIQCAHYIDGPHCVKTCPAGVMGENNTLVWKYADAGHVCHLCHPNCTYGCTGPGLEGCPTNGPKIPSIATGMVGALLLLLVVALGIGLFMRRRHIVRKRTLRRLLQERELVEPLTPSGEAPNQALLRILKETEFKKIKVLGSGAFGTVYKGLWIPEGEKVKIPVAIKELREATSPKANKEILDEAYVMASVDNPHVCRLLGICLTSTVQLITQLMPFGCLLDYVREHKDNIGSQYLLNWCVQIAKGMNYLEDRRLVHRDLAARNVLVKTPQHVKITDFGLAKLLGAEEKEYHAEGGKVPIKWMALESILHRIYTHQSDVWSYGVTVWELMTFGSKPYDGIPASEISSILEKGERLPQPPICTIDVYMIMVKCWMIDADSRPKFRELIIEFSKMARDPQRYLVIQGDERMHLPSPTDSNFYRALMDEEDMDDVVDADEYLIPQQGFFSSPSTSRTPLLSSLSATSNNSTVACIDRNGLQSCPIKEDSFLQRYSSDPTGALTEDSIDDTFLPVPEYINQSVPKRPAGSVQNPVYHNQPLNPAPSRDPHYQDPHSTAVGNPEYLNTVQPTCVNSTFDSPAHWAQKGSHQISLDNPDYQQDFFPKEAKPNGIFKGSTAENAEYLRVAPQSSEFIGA
Chain of Platelet-derived growth factor receptor beta (P09619 whole entry): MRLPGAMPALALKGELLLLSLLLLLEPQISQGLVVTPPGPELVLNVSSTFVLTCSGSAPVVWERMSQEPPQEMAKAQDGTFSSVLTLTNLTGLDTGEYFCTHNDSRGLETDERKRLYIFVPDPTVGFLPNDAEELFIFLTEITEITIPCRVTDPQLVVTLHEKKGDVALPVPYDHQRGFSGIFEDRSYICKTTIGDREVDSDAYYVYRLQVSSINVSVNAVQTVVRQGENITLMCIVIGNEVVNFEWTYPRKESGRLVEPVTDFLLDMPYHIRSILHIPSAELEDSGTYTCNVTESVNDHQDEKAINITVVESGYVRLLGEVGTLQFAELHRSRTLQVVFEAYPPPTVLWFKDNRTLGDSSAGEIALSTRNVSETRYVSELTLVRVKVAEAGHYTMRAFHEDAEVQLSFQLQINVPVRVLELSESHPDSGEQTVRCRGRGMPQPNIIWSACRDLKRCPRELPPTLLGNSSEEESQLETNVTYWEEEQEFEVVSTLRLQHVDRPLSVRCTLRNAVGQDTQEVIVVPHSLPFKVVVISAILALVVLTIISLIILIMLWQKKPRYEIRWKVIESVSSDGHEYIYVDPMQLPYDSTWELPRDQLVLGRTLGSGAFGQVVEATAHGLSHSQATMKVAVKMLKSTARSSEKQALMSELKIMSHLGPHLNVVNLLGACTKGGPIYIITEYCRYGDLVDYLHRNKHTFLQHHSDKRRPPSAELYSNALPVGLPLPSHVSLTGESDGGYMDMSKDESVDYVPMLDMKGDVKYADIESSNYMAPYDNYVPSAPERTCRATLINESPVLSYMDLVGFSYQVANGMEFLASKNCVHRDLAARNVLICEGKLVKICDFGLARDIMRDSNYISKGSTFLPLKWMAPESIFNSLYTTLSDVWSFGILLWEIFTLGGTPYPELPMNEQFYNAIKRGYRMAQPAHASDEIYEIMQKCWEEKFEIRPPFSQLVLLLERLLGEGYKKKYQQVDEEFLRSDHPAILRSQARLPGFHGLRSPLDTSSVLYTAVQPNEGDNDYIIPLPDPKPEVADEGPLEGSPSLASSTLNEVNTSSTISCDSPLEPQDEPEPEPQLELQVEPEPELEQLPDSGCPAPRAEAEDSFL

As for `O=C(/C=C/CN1CCCCC1)Nc1cc2c(Nc3ccc(F)c(Cl)c3)ncnc2s1`, the inhibition entry in assay [1], in assay [4], in assay [8] and in assay [9] was “Dose-dependent effect” throughout. Also, the inhibition result in assay [2], in assay [3] and in assay [6] was “Active” in each case. Further, the IC50 in [5] came out at 130 nM; in assay [7], 2 nM; in assay [10] it was 6440 nM; in [11] it was 9 nM.

For `C=CC(=O)Nc1cc2c(Nc3ccc(F)c(Cl)c3)ncnc2s1`, the inhibition entry in [1], in assay [4], in assay [8] and in assay [9] was “Dose-dependent effect” in each case. In addition, the inhibition entry in [2], in assay [3], in assay [14] and in assay [6] was “Active” in each case. For the same compound, the IC50 in assay [12] is over 10000 nM; in [13] it was over 10000 nM; in assay [15], 1630 nM; in assay [16], over 10000 nM; in assay [5], 730 nM; in [17] it was 4 nM. The IC50 is 24 nM in assay [7]; over 10000 nM in [18]; over 10000 nM in [19]; 3000 nM in [10]; over 10000 nM in assay [20]; over 10000 nM in assay [21]. Besides, the half-maximal inhibitory concentration (IC50) in [22] was over 10000 nM; in assay [11], 16 nM; in [23], over 10000 nM; in [24], over 10000 nM; in [25], 40 nM.

On to `O=C(/C=C/CN1CCOCC1)Nc1cc2c(Nc3ccc(F)c(Cl)c3)ncnc2s1`, for which the inhibition result in assay [1], in assay [4], in assay [8] and in assay [9] was “Dose-dependent effect” throughout. Also, the inhibition result in assay [2], in assay [3] and in assay [6] was “Active” in each case. Further, the IC50 in assay [5] turned out to be 2170 nM; in assay [7], 3 nM; in assay [10], 11700 nM; in [11], 3 nM.

Take `O=C(/C=C/CN1CC2CCC1C(=O)C2)Nc1cc2c(Nc3ccc(F)c(Cl)c3)ncnc2s1` (stereo unspecified): the inhibition result in assay [1], in [4], in assay [8] and in assay [9] was “Dose-dependent effect” each time. Besides, the inhibition entry in assay [2], in assay [3] and in assay [6] was “Active” in each case. In addition, the IC50 in assay [12] was over 10000 nM; in [13], over 10000 nM; in assay [15] it was over 10000 nM; in assay [16] it was over 10000 nM; in [5], 1540 nM; in [17], 37 nM. Also, the IC50 in assay [7] is 4 nM; in assay [18] it was over 10000 nM; in assay [19], over 10000 nM; in assay [10], 12000 nM; in assay [20], over 10000 nM; in assay [21] it was over 10000 nM. The IC50 was over 10000 nM in assay [22]; 0.9 nM in assay [11]; over 10000 nM in [23]; over 10000 nM in assay [24]; 30 nM in [25].
